Tests used:
Rattus norvegicus [1] = assay: Toxicity in Sprague-Dawley rat at 10 mg/kg/day, po; type: organism-based; design: route oral; details: in vivo
Rattus norvegicus [2] = assay: Estrogenic activity in Sprague-Dawley rat at 10 mg/kg/day, po; type: ADME, organism-based; design: route oral; details: in vivo
Rattus norvegicus [3] = assay: Toxicity in Sprague-Dawley rat at 10 mg/kg/day, po administered for 4 days; type: organism-based; design: route oral; details: in vivo, 96 h
Rattus norvegicus [4] = assay: Toxicity in Sprague-Dawley rat at 10 mg/kg/day, po administered for 16 days; type: organism-based; design: route oral; details: in vivo, 384 h
Rattus norvegicus [5] = assay: Toxicity in Sprague-Dawley rat at 10 mg/kg/day, po administered for 10 days; type: organism-based; design: route oral; details: in vivo, 240 h
[6] = 1-Octanol-water partition coefficient, log P of the compound by UV spectrophotometer; type: physicochemical

## CC(=O)COc1ccc(C)cc1
Rattus norvegicus [1]
  Activity: Non-toxic
Rattus norvegicus [2]
  Activity: Non-toxic

## CC(=O)COc1ccc([N+](=O)[O-])cc1
Rattus norvegicus [1]
  Activity: Non-toxic
Rattus norvegicus [2]
  Activity: Non-toxic

## O=C(COc1ccc(Cl)c2ccccc12)COc1ccc(Cl)c2ccccc12
Rattus norvegicus [1]
  Activity: Non-toxic
Rattus norvegicus [2]
  Activity: Non-toxic

## O=C(COc1ccc(-c2ccccc2)cc1)COc1ccc(-c2ccccc2)cc1
Rattus norvegicus [1]
  Activity: Non-toxic
Rattus norvegicus [2]
  Activity: Non-toxic

## COc1cccc(OCC(=O)COc2cccc(OC)c2)c1
Rattus norvegicus [1]
  Activity: Non-toxic
Rattus norvegicus [2]
  Activity: Non-toxic

## O=C(COc1ccc2c(c1)CCC2)COc1ccc2c(c1)CCC2
Rattus norvegicus [1]
  Activity: Non-toxic
Rattus norvegicus [2]
  Activity: Non-toxic

## CCCCCCCCCCCCCCC(=O)COc1ccc(C)cc1
Rattus norvegicus [1]
  Activity: Non-toxic
Rattus norvegicus [2]
  Activity: Non-toxic

## CCCCCCCCCCCCCCCCCCOCC(=O)COc1ccc(C)cc1
Rattus norvegicus [1]
  Activity: Non-toxic
Rattus norvegicus [2]
  Activity: Non-toxic

## Cc1ccccc1OCC(=O)COC(=O)c1ccc(Cl)cc1
Rattus norvegicus [1]
  Activity: Non-toxic
Rattus norvegicus [2]
  Activity: Non-toxic

## O=C(COc1ccc([N+](=O)[O-])cc1)COc1ccc([N+](=O)[O-])cc1
Rattus norvegicus [1]
  Activity: Non-toxic
Rattus norvegicus [2]
  Activity: Non-toxic

## O=C(CCl)COc1ccc([N+](=O)[O-])cc1
Rattus norvegicus [3]
  Activity: Toxic
Rattus norvegicus [4]
  Activity: Toxic
Rattus norvegicus [2]
  Activity: Non-toxic
Rattus norvegicus [5]
  Activity: Toxic

## O=C(CCl)COc1cccc2ccccc12
Rattus norvegicus [1]
  Activity: Non-toxic
Rattus norvegicus [2]
  Activity: Non-toxic

## CCCCCOCC(=O)COCCCCC
Rattus norvegicus [1]
  Activity: Non-toxic
Rattus norvegicus [2]
  Activity: Non-toxic

## CCOC(=O)CC(=O)COc1ccc(C)cc1
Rattus norvegicus [1]
  Activity: Non-toxic
Rattus norvegicus [2]
  Activity: Non-toxic

## Cc1ccc(OCC2CO2)cc1 (stereo unspecified)
[6]
  logP: 2.69
Rattus norvegicus [1]
  Activity: Non-toxic
Rattus norvegicus [2]
  Activity: Non-toxic

## CCOC(COc1cc(C)c(C)cc1Cl)(COc1cc(C)c(C)cc1Cl)OCC
[6]
  logP: 2.69
Rattus norvegicus [1]
  Activity: Non-toxic
Rattus norvegicus [2]
  Activity: Non-toxic

## Cc1ccc(OC(C)C(=O)C(C)Oc2ccc(C)cc2)cc1 (stereo unspecified)
Rattus norvegicus [1]
  Activity: Non-toxic
Rattus norvegicus [2]
  Activity: Non-toxic

## Cc1ccc(OCC(=O)CO)cc1
Rattus norvegicus [1]
  Activity: Non-toxic
Rattus norvegicus [2]
  Activity: Non-toxic

## CCCCCCCCCCCCC(OC(C)=O)S(C)(=O)=O (stereo unspecified)
Rattus norvegicus [1]
  Activity: Non-toxic
Rattus norvegicus [2]
  Activity: Non-toxic

## O=C(COc1ccccc1)COc1ccccc1
[6]
  logP: < 2.69

## COc1ccccc1OCC(=O)COc1ccccc1OC
[6]
  logP: < 2.69

## CCOC(=O)C(C)(C)Oc1ccc(Cl)cc1 [CLOFIBRATE]
Rattus norvegicus [1]
  Activity: Non-toxic
Rattus norvegicus [2]
  Activity: Non-toxic

Source: ChEMBL document CHEMBL3243968, “Effects of molecular modification on hypocholesteremic activity of 1,3-bis(substituted phenoxy)-2-propanones and related derivatives” (J Med Chem, 1978)
